This is an account of results in publication PMC4980623 (2016).

The subject of experiment [1] is HTG22 (DNA, G4) AGGGTTAGGGTTAGGGTTAGGG
Kind of experiment: UV-vis absorption titration. The conditions noted are these: K+ (100 mM; K+ and Na+ swapped elsewhere in the source), 15 μM compound, 0-60 μM DNA, Tris-HCl.

Experiment [2] deals with c-myc (pu27) (DNA, G4) TGGGGAGGGTGGGGAGGGTGGGGAAGG
In words: FRET melting. As to conditions: K+ (100 mM; K+ and Na+ swapped elsewhere in the source); various concentrations.

Experiment [3] deals with c-kit 1 (DNA, G4) GGGAGGGCGCTGGGAGGAGGG
In words: FRET melting. The conditions noted are these: various concentrations.

The test system of experiment [4] is HTG22 (FRET, FAM/TAMRA) (DNA, G4) AGGGTTAGGGTTAGGGTTAGGG
Kind of experiment: FRET melting. As to conditions: 20 μM compound, DNA:drug 1:10.

For experiment [5], the system named is Hairpin DNA (5'-biotin, SPR) (DNA, hairpin) TTGGCCAATGTTTGGCCAA
In words: SPR. (In general: In SPR one partner is held on a chip, and binding of the other changes the refractive index at the surface.)

Experiment [6] has as its system HTG22 (5'-biotin, SPR) (DNA, G4) AGGGTTAGGGTTAGGGTTAGGG
In words: SPR kinetics, bivalent ligand model. As to conditions: K+ (100 mM; K+ and Na+ swapped elsewhere in the source), stronger of two sites.

For experiment [7], the system named is HTG22 (DNA, G4) AGGGTTAGGGTTAGGGTTAGGG
Kind of experiment: CD titration, 285 nm. The conditions noted are these: K+ (100 mM; K+ and Na+ swapped elsewhere in the source); 5 μM DNA, Tris-HCl.

The test system of experiment [8] is Hairpin DNA (DNA, hairpin) TTGGCCAATGTTTGGCCAA
In words: UV melting, 260 nm. The conditions noted are these: 100 mM KCl; DNA:drug 1:10, 3 μM DNA; 20 mM cacodylic acid buffer, pH 7.3.

[9] abbreviates: K+ (100 mM; K+ and Na+ swapped elsewhere in the source).
Setting [10] is: Na+ (100 mM; K+ and Na+ swapped elsewhere in the source).

For `CN1CCN(Cc2nc3ccc4c(c3[nH]2)C(=O)c2ccccc2C4=O)CC1`, the binding entry in experiment [1] (16.41% hypochromicity, 3 nm red shift) is listed as “yes”; in experiment [2], “no”; in experiment [3] (setting [9]), “yes”; in experiment [3] (setting [10]) it was “no”; in experiment [7], “yes”. The entries for the “Delta Tm” value in experiment [4] (setting [9]), in experiment [4] (setting [10]) and in experiment [8] were 5.85 °C, 0.55 °C and 0.03 °C, respectively. This compound also showed a Ka in experiment [5] of 60000 M⁻¹. The Ka2 in experiment [6] (Ka1 1.65 × 10^5) worked out at 169000 M⁻¹.

For `C[N+]1(C)CCN(Cc2nc3ccc4c(c3[nH]2)C(=O)c2ccccc2C4=O)CC1`, the binding result in experiment [1] (16.89% hypochromicity, 1 nm red shift) is reported as “yes”; in experiment [2], “no”; in experiment [3] (setting [9]), “yes”; in experiment [3] (setting [10]), “no”; in experiment [7], “yes”. In addition, the “Delta Tm” value came to 8.04 °C in experiment [4] (setting [9]), 1.00 °C in experiment [4] (setting [10]) and 0.10 °C in experiment [8]. Further, the Ka in experiment [5] was determined as 40000 M⁻¹. This compound also had a Ka2 in experiment [6] (Ka1 2.82 × 10^5) of 384000 M⁻¹.
